Measurements published in patent US20230257372A1 (CHONG KUN DANG PHARMACEUTICAL CORP., priority 2020, published 2023).

Legend:
human recombinant HDAC1 = molecular target: T1, human recombinant HDAC1 (Homo sapiens, UniProt Q13547); assay: HDAC1 enzyme activity inhibition (HDAC Fluorimetric Drug Discovery Kit); type: biochemical; details: human recombinant HDAC1; IC50 calculated with GraphPad Prism; read-out: HDAC1
T1 construct: purchased Enzo Life Science, Inc. BML-SE456
How it was run: (§1)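 Fluorimetric deacetylase read-out: after 30 min with Developer II following a 60 min, 30° C reaction of recombinant enzyme ([…]) with 10 μM substrate, across five-fold serial compound dilutions.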

human recombinant HDAC6 = molecular target: T2, human recombinant HDAC6 (Homo sapiens, UniProt Q9UBN7); assay: HDAC6 enzyme activity inhibition (HDAC Fluorimetric Drug Discovery Kit); type: biochemical; details: for HDAC6 selectivity (fold): HDAC1 IC50 / HDAC6 IC50; for IC50: human recombinant HDAC6, IC50 calculated with GraphPad Prism
T2 construct: purchased Calbiochem Inc. 382180
T2 sequence (Q9UBN7 1-1215): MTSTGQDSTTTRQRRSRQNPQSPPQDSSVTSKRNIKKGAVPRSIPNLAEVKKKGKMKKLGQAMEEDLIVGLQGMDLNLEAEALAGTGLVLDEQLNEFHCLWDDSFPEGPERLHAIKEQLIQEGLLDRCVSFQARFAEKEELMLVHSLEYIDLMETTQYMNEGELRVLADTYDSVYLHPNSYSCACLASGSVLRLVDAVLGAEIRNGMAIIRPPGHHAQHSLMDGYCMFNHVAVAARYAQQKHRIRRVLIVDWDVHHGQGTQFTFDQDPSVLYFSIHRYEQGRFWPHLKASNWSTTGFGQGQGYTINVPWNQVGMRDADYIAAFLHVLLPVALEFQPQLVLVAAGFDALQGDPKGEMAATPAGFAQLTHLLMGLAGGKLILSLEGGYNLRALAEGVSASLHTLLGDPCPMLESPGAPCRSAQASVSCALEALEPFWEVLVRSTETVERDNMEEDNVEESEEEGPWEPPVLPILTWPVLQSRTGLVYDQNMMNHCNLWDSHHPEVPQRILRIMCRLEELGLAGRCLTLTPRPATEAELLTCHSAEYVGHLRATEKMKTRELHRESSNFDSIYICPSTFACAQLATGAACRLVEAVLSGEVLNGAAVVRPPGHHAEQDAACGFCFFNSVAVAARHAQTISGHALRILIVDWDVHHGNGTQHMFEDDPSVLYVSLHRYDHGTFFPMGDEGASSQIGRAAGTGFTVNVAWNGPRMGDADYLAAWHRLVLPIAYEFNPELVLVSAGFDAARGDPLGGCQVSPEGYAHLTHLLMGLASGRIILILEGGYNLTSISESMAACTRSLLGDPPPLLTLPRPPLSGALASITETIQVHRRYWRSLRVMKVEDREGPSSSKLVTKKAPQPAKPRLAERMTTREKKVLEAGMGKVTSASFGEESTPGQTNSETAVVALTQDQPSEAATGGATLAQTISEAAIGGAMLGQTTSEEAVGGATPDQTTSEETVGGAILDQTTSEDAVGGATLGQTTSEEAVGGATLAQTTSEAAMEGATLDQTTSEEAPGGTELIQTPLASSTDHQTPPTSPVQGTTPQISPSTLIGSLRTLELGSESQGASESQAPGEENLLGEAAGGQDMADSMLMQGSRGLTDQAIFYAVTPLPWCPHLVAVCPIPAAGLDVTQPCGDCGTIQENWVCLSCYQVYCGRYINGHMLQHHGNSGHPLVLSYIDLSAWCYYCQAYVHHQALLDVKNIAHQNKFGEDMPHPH
How it was run: as §1

T1 sequence (Q13547 whole entry): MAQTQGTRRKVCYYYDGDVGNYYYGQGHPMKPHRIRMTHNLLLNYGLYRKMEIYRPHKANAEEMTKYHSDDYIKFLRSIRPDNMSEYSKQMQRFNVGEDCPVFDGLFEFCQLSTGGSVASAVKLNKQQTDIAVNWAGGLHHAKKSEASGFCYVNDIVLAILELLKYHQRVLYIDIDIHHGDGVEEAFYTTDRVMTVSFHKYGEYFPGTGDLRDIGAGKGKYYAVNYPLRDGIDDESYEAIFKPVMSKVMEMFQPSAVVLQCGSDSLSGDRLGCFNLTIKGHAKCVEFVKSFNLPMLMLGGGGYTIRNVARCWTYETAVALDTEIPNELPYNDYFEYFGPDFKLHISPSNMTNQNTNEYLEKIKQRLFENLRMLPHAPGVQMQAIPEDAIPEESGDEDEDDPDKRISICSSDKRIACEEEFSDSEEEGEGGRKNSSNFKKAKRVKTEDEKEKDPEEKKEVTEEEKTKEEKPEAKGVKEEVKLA

IC50 (human recombinant HDAC1) | HDAC6 selectivity (fold) (human recombinant HDAC6) | IC50 (human recombinant HDAC6) | SMILES
> 50000 nM | 1396 fold | 35.8 nM | CC(C)(C)C(=O)Nc1cccc(-c2cn(Cc3ccc(-c4nnc(C(F)F)o4)cc3)nn2)c1 [Compound 4327, N-(3-(1-(4-(5-(difluoromethyl)-1,3,4-oxadiazol-2-yl)benzyl)-1H-1,2,3-triazol-4-yl)phenyl)pivalamide]
> 50000 nM | 846 fold | 59.1 nM | CC(C)(F)C(=O)Nc1cccc(-c2cn(Cc3ccc(-c4nnc(C(F)F)o4)cc3)nn2)c1 [Compound 4328, N-(3-(1-(4-(5-(difluoromethyl)-1,3,4-oxadiazol-2-yl)benzyl)-1H-1,2,3-triazol-4-yl)phenyl)-2-fluoro-2-methylpropanamide]
> 50000 nM | 815 fold | 61.3 nM | CN(C)CC(=O)Nc1cccc(-c2cn(Cc3ccc(-c4nnc(C(F)F)o4)cc3)nn2)c1 [Compound 4329, N-(3-(1-(4-(5-(difluoromethyl)-1,3,4-oxadiazol-2-yl)benzyl)-1H-1,2,3-triazol-4-yl)phenyl)-2-(dimethylamino)acetamide]
> 50000 nM | 268 fold | 186 nM | Fc1cc(-c2nnc(C(F)F)o2)ccc1Cn1cc(-c2cccc(NC3CCCCC3)c2)nn1 [Compound 4330, N-cyclohexyl-3-(1-(4-(5-(difluoromethyl)-1,3,4-oxadiazol-2-yl)-2-fluorobenzyl)-1H-1,2,3-triazol-4-yl)aniline]
> 50000 nM | 1106 fold | 45.2 nM | Fc1cc(-c2nnc(C(F)F)o2)ccc1Cn1cc(-c2cccc(NC3CCOCC3)c2)nn1 [Compound 4331, N-(3-(1-(4-(5-(difluoromethyl)-1,3,4-oxadiazol-2-yl)-2-fluorobenzyl)-1H-1,2,3-triazol-4-yl)phenyl)tetrahydro-2H-pyran-4-amine]
> 50000 nM | 1201 fold | 41.6 nM | Fc1cc(-c2nnc(C(F)F)o2)ccc1Cn1cc(-c2cccc(NC3COC3)c2)nn1 [Compound 4332, N-(3-(1-(4-(5-(difluoromethyl)-1,3,4-oxadiazol-2-yl)-2-fluorobenzyl)-1H-1,2,3-triazol-4-yl)phenyl)oxetan-3-amine]
> 50000 nM | 797 fold | 62.7 nM | CN(C)CCC(=O)Nc1cccc(-c2cn(Cc3ccc(-c4nnc(C(F)F)o4)cc3F)nn2)c1 [Compound 4335]
> 50000 nM | 765 fold | 65.3 nM | FC(F)c1nnc(-c2ccc(Cn3cc(-c4cccc(N5CCOCC5)c4)nn3)cc2)o1 [Compound 4338, 4-(3-(1-(4-(5-(difluoromethyl)-1,3,4-oxadiazol-2-yl)benzyl)-1H-1,2,3-triazol-4-yl)phenyl)morpholine]
> 50000 nM | 1623 fold | 30.8 nM | Fc1cc(-c2nnc(C(F)F)o2)ccc1Cn1cc(-c2cccc(N3CCOCC3)c2)nn1 [Compound 4339, 4-(3-(1-(4-(5-(difluoromethyl)-1,3,4-oxadiazol-2-yl)-2-fluorobenzyl)-1H-1,2,3-triazol-4-yl)phenyl)morpholine]
> 50000 nM | 7575 fold | 6.6 nM | FC(F)c1nnc(-c2ccc(Cn3cc(-c4ccc5cn[nH]c5c4)nn3)nc2)o1 [Compound 4340, 2-(6-((4-(1H-indazol-6-yl)-1H-1,2,3-triazol-1-yl)methyl)pyridin-3-yl)-5-(difluoromethyl)-1,3,4-oxadiazole]
> 50000 nM | 5882 fold | 8.5 nM | FC(F)c1nnc(-c2ccc(Cn3cc(-c4ccc5[nH]ncc5c4)nn3)nc2)o1 [Compound 4343, 2-(6-((4-(1H-indazol-5-yl)-1H-1,2,3-triazol-1-yl)methyl)pyridin-3-yl)-5-(difluoromethyl)-1,3,4-oxadiazole]
> 50000 nM | 137 fold | 363 nM | CC(C)(F)CN1CCC(c2cccc(-c3cn(Cc4ccc(-c5nnc(C(F)F)o5)cc4F)nn3)c2)CC1 [Compound 4349, 2-(difluoromethyl)-5-(3-fluoro-4-((4-(3-(1-(2-fluoro-2-methylpropyl)piperidin-4-yl)phenyl)-1H-1,2,3-triazol-1-yl)methyl)phenyl)-1,3,4-oxadiazole]
> 50000 nM | 82 fold | 605 nM | CCC(F)(CC)CN1CCC(c2cccc(-c3cn(Cc4ccc(-c5nnc(C(F)F)o5)cc4F)nn3)c2)CC1 [Compound 4350, 2-(difluoromethyl)-5-(4-((4-(3-(1-(2-ethyl-2-fluorobutyl)piperidin-4-yl)phenyl)-1H-1,2,3-triazol-1-yl)methyl)-3-fluorophenyl)-1,3,4-oxadiazole]
> 50000 nM | 1193 fold | 41.9 nM | CN(C)C(C)(C)C(=O)Nc1cccc(-c2cn(Cc3ccc(-c4nnc(C(F)F)o4)cc3)nn2)c1 [Compound 4351, N-(3-(1-(4-(5-(difluoromethyl)-1,3,4-oxadiazol-2-yl)benzyl)-1H-1,2,3-triazol-4-yl)phenyl)-2-(dimethylamino)-2-methylpropanamide]
> 50000 nM | 1562 fold | 33.2 nM | CN(C)CC(=O)Nc1cccc(-c2cn(Cc3ccc(-c4nnc(C(F)F)o4)cc3F)nn2)c1 [Compound 4352, N-(3-(1-(4-(5-(difluoromethyl)-1,3,4-oxadiazol-2-yl)-2-fluorobenzyl)-1H-1,2,3-triazol-4-yl)phenyl)-2-(dimethylamino)acetamide]
> 50000 nM | 1201 fold | 41.6 nM | CN(C)C(C)(C)C(=O)Nc1cccc(-c2cn(Cc3ccc(-c4nnc(C(F)F)o4)cc3F)nn2)c1 [Compound 4353]
> 50000 nM | 1515 fold | 33 nM | CN1CCc2cc(-c3cn(Cc4ccc(-c5nnc(C(F)F)o5)cc4F)nn3)ccc2C1 [Compound 4358, 2-(difluoromethyl)-5-(3-fluoro-4-((4-(2-methyl-1,2,3,4-tetrahydroisoquinolin-6-yl)-1H-1,2,3-triazol-1-yl)methyl)phenyl)-1,3,4-oxadiazole]
> 50000 nM | 1182 fold | 42.3 nM | CCN1CCc2cc(-c3cn(Cc4ccc(-c5nnc(C(F)F)o5)cc4F)nn3)ccc2C1 [Compound 4359, 2-(difluoromethyl)-5-(4-((4-(2-ethyl-1,2,3,4-tetrahydroisoquinolin-6-yl)-1H-1,2,3-triazol-1-yl)methyl)-3-fluorophenyl)-1,3,4-oxadiazole]
> 50000 nM | 881 fold | 56.7 nM | CC(C)N1CCc2cc(-c3cn(Cc4ccc(-c5nnc(C(F)F)o5)cc4F)nn3)ccc2C1 [Compound 4360, 2-(difluoromethyl)-5-(3-fluoro-4-((4-(2-isopropyl-1,2,3,4-tetrahydroisoquinolin-6-yl)-1H-1,2,3-triazol-1-yl)methyl)phenyl)-1,3,4-oxadiazole]
> 50000 nM | 762 fold | 65.6 nM | Fc1cc(-c2nnc(C(F)F)o2)ccc1Cn1cc(-c2ccc3c(c2)CCN(C2COC2)C3)nn1 [Compound 4362, 2-(difluoromethyl)-5-(3-fluoro-4-((4-(2-(oxetan-3-yl)-1,2,3,4-tetrahydroisoquinolin-6-yl)-1H-1,2,3-triazol-1-yl)methyl)phenyl)-1,3,4-oxadiazole]
> 50000 nM | 1385 fold | 36.1 nM | CN1CCc2ccc(-c3cn(Cc4ccc(-c5nnc(C(F)F)o5)cc4F)nn3)cc2C1 [Compound 4363, 2-(difluoromethyl)-5-(3-fluoro-4-((4-(2-methyl-1,2,3,4-tetrahydroisoquinolin-7-yl)-1H-1,2,3-triazol-1-yl)methyl)phenyl)-1,3,4-oxadiazole]
